From patent US20040109845A1, “Method for inhibiting articular cartilage matrix calcification” (priority 2001, published 2004)
Entries after “also recorded” stand apart in the source; their conditions may differ.

Columns and labels:
[1] = system: meniscal cells and TC28 cells; test: Matrix calcification, quantitative Alizarin Red S binding assay; type: cell-based, human; conditions: polyHEME culture up to 10 days; cytokines 10 ng/ml or TGase transfection
Procedure: TC28 cells and meniscal cells were transfected with empty plasmid or a TGase expression construct, and then transferred to polyHEME and cultured for up to 10 days, as described above. For comparison purposes, control untransfected cells were treated with IL-1 or TGFβ(10 ng/ml each) for up to 10 days. To measure matrix calcification, media and cells were removed from the PolyHEME-coated dishes, and 1 ml Alizarin Red S solution (0.5% v/v Alizarin Red S, pH 5.0) added to washed plates at 23° C. for 10 min. After further washing, 100 mM Cetylpyridium Chloride was added for 10 min to release the remaining calcium-bound Alizarin Red S. The solution was collected and read at OD570, with 1.0 OD570=1 unit of Alizarin Red released per μg of DNA per culture dish. n=6 each, studied in triplicate, and using 6 different knee meniscal donors. *p<0.05.
To promote matrix calcification in short-term cultures, we modified a nonadherent chondrocyte culture system (37), and assessed cells that formed calcifying nodules over 10 days in culture. In brief, meniscal and TC28 cells, at 24 hours after the transfection, were washed and removed from the dish using 0.2 mg/ml EDTA, pH 8.0, then transferred to 6 well plates that had been previously coated with a 10% (wt./v) in 95% ethanol solution of Poly (2-Hydroxyethyl methacrylate) (polyHEME). […]
To assay calcification of the pericellular matrix of meniscal cells and TC28 cells, we used a quantitative Alizarin Red S binding assay (38). […] The solution was collected and read at OD570 on a SpectraMAX microplate reader (Molecular Devices, Sunnyvale, Calif.), with 1 OD570=1 unit of Alizarin Red released per μg of DNA per culture dish. We extracted matrix crystals from plates under each condition using a papain-hypochlorite method (39), and the crystals were embedded in Spurr epoxy resin, sectioned, and viewed on a Philips EM340 transmission electron micrograph and analyzed by electron diffraction (40,41).

[2] = system: TGase activity in knee meniscal cells and TC28 cells; test: TGase activity in nonadherent nodule-forming culture on polyHEME; type: cell-based, human; conditions: polyHEME plates, β-glycerophosphate, ascorbate, dexamethasone, up to 10 days; cytokines 10 ng/ml or TGase transfection
Procedure: FIG. 10 refers to effects of direct Factor XIIIa and tTGase expression on TGase activity in meniscal cells and TC28 cells. Human chondrocytic TC28 cells or normal knee meniscal cells (5×10^5), were plated in 60 mm dishes and allowed to adhere overnight, as described in the Methods. Two μg of plasmid DNAs or empty plasmid vector were then transfected, performed as described above. After 24 hrs, the cells were removed from the dishes and plated on polyHEME-coated tissue culture plates and media supplemented with 10 mM P-glycerophosphate, ascorbatte (50 μg/ml) and dexamethasone (10^−8 M), which stimulated the cells to form mineralizing nodules for 3-10 days in culture. For comparison purposes, cells were treated only with IL-1 or TGFβ (10 ng/ml each) for up to 10 days. At each time point designated, the cell nodules were collected and lysed, and TGase activity then determined as previously described. For meniscal cells, data pooled from 6 donors studied in triplicate. For TC28 cells, n=6 each, studied in triplicate. Statistics not indicated on this graph, but p<0.05 for the increases in TGase activities in response to both Factor XIIIa and tTGase transfection, and for IL-1 treatment, at all time points.
TGase activity was measured by modifications to a previously described method (35). Specifically, we coated 96 well ImmunoModule plates (Nunc, Rochester, N.Y.) with 200 μl of 20 mg/ml N,N-dimethylcasein for 1 hr at 23° C. The N,N-dimethylcasein was removed and nonspecific protein binding was blocked by adding 3% BSA in 100 mM Tris, pH 8.5, 150 mM NaCl, 0.05% Tween-20 (TBST) to each well for an additional 1 hr at 23° C. Then, aliquots of 5 μg of total cellular protein from meniscal or TC28 cells that had been lysed and sonicated (in 5 mM Tris HCl, 0.25 M sucrose, 0.2 mM MgSO4, 2 mM DTT, 0.4 mM PMSF, 0.4% Triton X100, pH 7.5), were added to the plate in triplicate. To measure TGase in extracts of whole menisci, 50 mg dry weight of tissue from the central zone of each medial meniscus was used as the source (after solubilization and sonication) for aliquots of 5 μg of soluble protein. Fifty μl of solution A (100 mM Tris, pH 8.5 and 20 mM CaCl2) was added to all samples for TGase assay, followed by the addition of 50 μl of solution B (100 mM Tris, pH 8.5, 40 mM DTT and freshly added 2 mM 5-(Biotinamido) pentylamine (BP)). The plates were incubated for 1 hr at 37° C. The wells were washed once with TBST containing 1 mM EDTA and then three times with TBST. […] Readings at OD410 were taken over 15 minutes. […] TGase activity was designated as the amount of BP incorporated into casein (per μg cellular DNA, determined chromogenically following precipitation in perchlorate (28), or, where indicated, per μg protein, determined as previously described (28)). […]

[3] = system: S100A11 mRNA in human articular chondrocytes; test: S100A11 mRNA expression by RT-PCR; type: cell-based; conditions: 10 ng/ml, 24 hours, relative to L30
Procedure: Normal human knee articular chondrocytes were treated in culture with IL-1 or IGF-I (10 ng/ml) for 24 hours and ascertained for S100A11 mRNA expression by RT-PCR, relative to the loading control L30, a ribosomal housekeeping gene. Results for induction of S100 A11 representative of 3 separate experiments with different donors.

[4] = system: TGase activity (tTGase and Factor XIIIa) in meniscal cells; test: TGase activity in cultured knee meniscal cells (BP incorporation into N,N-dimethylcasein); type: cell-based, human; conditions: monolayer culture, 48-72 hrs; IL-1β, TGFβ, TNFα 10 ng/ml; Noc-12 2.5-25 μM; Sin-1 1-10 μM
Procedure: Meniscal cells were maintained in DMEM high glucose and supplemented with 10% FCS, 1% L-glutamine, 100 units/ml Penicillin and 50 μg/ml Streptomycin (Omega Scientific, Tarzana, Calif.) and cultured at 37° C. with 5% CO2. In monolayer cell culture studies involving stimulation by TGFE[…] or IL-1, the cells were placed in DMEM high glucose containing 1% FCS, 1% L-glutamine, 100 units/ml Penicillin and 50 μg/ml Streptomycin. In all other studies, the cells were cultured in complete medium (as described above). Only primary or first passage meniscal cells were studied.
TGase activity was measured by modifications to a previously described method (35). Specifically, we coated 96 well ImmunoModule plates (Nunc, Rochester, N.Y.) with 200 μl of 20 mg/ml N,N-dimethylcasein for 1 hr at 23° C. The N,N-dimethylcasein was removed and nonspecific protein binding was blocked by adding 3% BSA in 100 mM Tris, pH 8.5, 150 mM NaCl, 0.05% Tween-20 (TBST) to each well for an additional 1 hr at 23° C. Then, aliquots of 5 μg of total cellular protein from meniscal or TC28 cells that had been lysed and sonicated (in 5 mM Tris HCl, 0.25 M sucrose, 0.2 mM MgSO4, 2 mM DTT, 0.4 mM PMSF, 0.4% Triton X100, pH 7.5), were added to the plate in triplicate. To measure TGase in extracts of whole menisci, 50 mg dry weight of tissue from the central zone of each medial meniscus was used as the source (after solubilization and sonication) for aliquots of 5 μg of soluble protein. Fifty μl of solution A (100 mM Tris, pH 8.5 and 20 mM CaCl2) was added to all samples for TGase assay, followed by the addition of 50 μl of solution B (100 mM Tris, pH 8.5, 40 mM DTT and freshly added 2 mM 5-(Biotinamido) pentylamine (BP)). The plates were incubated for 1 hr at 37° C. The wells were washed once with TBST containing 1 mM EDTA and then three times with TBST. One hundred μl of a 1:500 dilution of streptavidin-AP in 3% BSA/TBST was added to each well for 1 hr at 23° C. The wells were washed twice with TBST, and 200 μl of solution C (100 mM Tris, pH 9.8, mM NaCl, 5 mM MgCl2, 1 mg/ml of freshly added p-nitrophenylphosphate) was added to each well. Readings at OD410 were taken over 15 minutes. Purified guinea pig liver TGase (Sigma) was used to prepare a standard curve. TGase activity was designated as the amount of BP incorporated into casein (per μg cellular DNA, determined chromogenically following precipitation in perchlorate (28), or, where indicated, per μg protein, determined as previously described (28)).
To directly induce expression of each TGase in meniscal cells, 5×10^5 primary cells were plated in 60 mm dishes and allowed to adhere overnight. We modified (28) the manufacturer's protocol for the Lipofectamine Plus kit (Life Technologies, Grand Island, N.Y.). To optimize the transfection of meniscal cells, we added 2.0 ml of serum-free DMEM/F12 containing 0.00015% digitonin to washed cells and incubated for 3 min at 23° C. Then, media was removed, and cells transfected at 37° C. for 7 hrs, followed by removal of the media and addition of complete DMEM high glucose medium. Transfection of each TGase into TC28 cells was done by the same procedure, with the exception that the digitonin permeabilization step was omitted.

NTPPPH = NTPPPH activity of cultured meniscal cells; type: cell-based, human; conditions: 48 h, 10 ng/ml
Procedure: (§1) Meniscal cells (from the same donors used in FIG. 3 above) were released from the matrix with collagenase digestion, and grown in monolayer culture for 72 hrs, then trypsinized and plated in 35 mm dishes (containing 3×10^5 cells) and allowed to adhere overnight. Cells were then treated for 48 h with 10 ng/ml of TGFβ or IL-1β (10 ng/ml) in 1% FCS-containing DMEM high glucose medium. The cells were collected and lysed for the TGase (FIG. 5A), NTPPPH (FIG. 5B), and AP (FIG. 5C) assays as described in the Methods. Five micrograms of soluble protein was studied in triplicate for each assay performed as previously described. Results were analyzed by linear regression, with results indicated.
(§2) PPi was determined by differential adsorption on activated charcoal of UDP-D-[6-^3H] glucose (Amersham, Chicago, Ill.) from the reaction product 6-phospho [6-^3H] gluconate (28). Units of NTPPPH and AP were designated as micromoles of substrate hydrolyzed per hour (per μg DNA in each sample) (28). NO release by cultured meniscal cells was measured using the Greiss reaction (33). Concentrations or specific activities of PPi, NTPPPH, and AP were equalized for cellular DNA concentrations in each well.

[5] = system: tTGase and Factor XIIIa expression in knee articular cartilage and medial meniscus; test: Immunohistochemistry of cartilage organ culture; type: cell-based, human; conditions: organ culture 48 hours
Procedure: Articular cartilage and medial menisci from normal donors were studied in cartilage organ culture in media supplemented with 1% FCS and 1% L-glutamine, as described in the Methods, following 48 hours of treatment with TGFβ 10 ng/ml, IL-1β (1 ng/ml), or medium alone.
Immunohistochemistry was performed as previously described in detail (30,33,34). In brief, immunohistochemical sections (5 microns) were pretreated with bovine testicular hyaluronidase (0.5 mg/ml at 37° C. for 30 min) and incubated in 5% normal goat or rabbit serum for 20 min prior to avidin/biotin peroxidase staining by the ABC method. Hematoxilin was used as the counterstain. Biotinylated anti-rabbit or anti-goat antibodies served as secondary antibodies. Levamisole was added to block endogenous alkaline phosphatase (AP). Negative controls were nonimmune rabbit or goat serum as a substitute for primary antibody.
Meniscal cells were taken from tissue slices removed from the central regions of the medial and lateral menisci. Where indicated, meniscal organ culture was performed by incubating these slices for b 48 hours in DMEM high glucose containing 1% FCS and 1% L-glutamine (and articular cartilage organ culture performed in the same manner, where indicated). Otherwise, we minced meniscal tissue with a scalpel, incubated in DMEM high glucose containing 2 mg/ml clostridial collagenase, 5% FCS, 1% L-glutamine, 100 units/ml Penicillin and 50 μg/ml Streptomycin (Omega Scientific, Tarzana, Calif.), and incubated on a gyratory shaker at 37° C. until the tissue fragments were digested. Residual multicellular aggregates were removed by sedimentation (1,000×g), and cells were washed three times in DMEM containing 5% FCS.

[6] = system: alkaline phosphatase (AP); test: AP activity of cultured meniscal cells; type: cell-based, human; conditions: 48 h, 10 ng/ml
Procedure: as §1, §2

| Compound | TGase activity under mineralizing nonadherent conditions [2] | Induction of TGase activity in cultured normal knee meniscal cells [4] | also measured |
| --- | --- | --- | --- |
| Factor XIIIa: recombinant human Factor XIIIa cDNA in pUC18, transfected into meniscal and TC28 cells | markedly increased TGase activity | – | Matrix calcification (bound Alizarin Red S) [1]: induced particularly marked increases in the amount of calcium precipitated in the matrix |
| tTGase: human 3.3 kb full length tTGase cDNA construct in pSG5, transfected into cells | markedly increased TGase activity | – | Matrix calcification (bound Alizarin Red S) [1]: induced particularly marked increases in the amount of calcium precipitated in the matrix |
| IGF-1: IGF-1, involved in the pathogenesis of osteoarthritis | – | – | S100A11 mRNA expression [3]: induce mRNA expression of S100A11 |
| [NH-]c1c[n+](N2CCOCC2)no1 [Sin-1, reference compound] | – | shared the ability of II-1 to induce TGase activity | – |
| TGFβ: Human recombinant TGF-β1 purchased from R&D Systems | did not significantly augment activity of TGase | did not induce TGase activity; also recorded: but not TGFβ | NTPPPH activity (NTPPPH): stimulated increased NTPPPH activity in association with aging; tTGase and Factor XIIIa immunostaining ([5]; knee articular cartilage and meniscal cartilage slices, TGFβ 10 ng/ml, IL-1β 1 ng/ml): induced increased tTGase and Factor XIIIa immunostaining; tTGase expression ([5]; knee articular cartilage): up-regulated tTGase expression; AP activity [6]: did not significantly change |
| TNFα | – | stimulated increased TGase activity; also recorded: induce TGase activity | – |
| CCNCCN(CC)N(O)N=O [Noc-12, reference compound] | – | shared the ability of II-1 to induce TGase activity | – |
